One assay has as its system human IL-21. Description: PT-18 h21Rα survival assay (apoptosis by Annexin V staining), IL-21. In kind it is cell-based. The conditions noted are these: hIL-21Rα-transfected PT-18 cells, 1 nM human IL-21, 5 μM BNZ132-1, PE-Annexin V flow cytometry. The procedure:
FIG. 6A-FIG. 6E presents inhibitory spectrum of BNZ132-1 over γc- and non-γc-cytokines. […] Neutralizing antibodies against each cytokine (R & D systems, 5 μg ml^−1) were included as controls. After 20 h, the cells were pulsed with WST-1 (Clontech) and OD450 of each well was measured after 6 h. A 19-mer scrambled peptide was used as a negative control at 5 μM. The experiments were conducted in triplicate (applies to all experiments in FIG. 6A-FIG. 6E). The result represents one of at least three independent experiments (applies to all experiments in FIG. 6A-FIG. 6E). […] In PT-18 proliferation assay, PT-18β or PT-18h21Rα cells were withdrawn of mouse IL-3 for 12 h before the experiment. Cells were then incubated with 1 nM of mouse IL-4, mouse IL-9, or mouse IL-21 in the presence or absence of the indicated doses (μM) of BNZ132-1. Neutralizing antibodies to each cytokine (5 μg ml^−1, except for anti-mouse IL-21 polyclonal antibody which was used at 15 μg ml−1) and a scrambled control peptide (5 μM) were included as negative controls. WST-1 assay was conducted as described above. […] In PT-18 h21Rα survival assay, PT-18h21Rα cells are described in the text. […] Both parental and hIL-21Rα positive PT-18 cells were washed and incubated without IL-3 for 12 h before the assay. […] The Y-axis represents the cpm (count per minute) values measured by a β-counter. […]
(In general: A flow cytometer gives signals particle by particle.)

The subject of the next assay is HAM/TSP T cells. Description: Spontaneous ex vivo proliferation of HAM/TSP patient lymphocytes (thymidine incorporation). In kind it is cell-based, human. The conditions noted are these: 5 days culture without exogenous cytokines; BNZ132-1 1 μM or 3 and 0.3 μM; mABs 5 mg/ml each. The procedure: FIG. 7A, and FIG. 7B present effective inhibition of a combined function of target γc-cytokines by BNZ132-1. […] Human Peripheral T cells were prepared as described in the methodology section. Four hundred thousand cells (in 200 μl culture) were incubated with the cytokines and BNZ132-1 at the indicated concentrations for 24 h, and cellular proliferation was determined by the […] using the WST-1 reagent (Clontech). The Y-axis represents the OD450 values. The p values; 1 nM cytokine combination-No inhibition vs. anti-IL-2; 0.33, No inhibition vs. anti-IL-15; 0.13, No inhibition vs. anti IL-2+IL-15; 0.003. No inhibition vs. BNZ132-1; 0.021. 0.1 nM cytokine combination-No inhibition vs. anti-IL-2; 0.046, No inhibition vs. anti-IL-15; 0.057, No inhibition vs. anti IL-2+IL-15; 0.001, No inhibition vs. anti IL-2+15; 0.001, No inhibition vs.BNZ132-1; 0.001. The assay was performed in triplicate. […] Peripheral blood mononuclear cells were purified from the blood of a HAM-TSP patient and set up for a spontaneous proliferation assay as previously described36. The cellular proliferation was measured by the thymidine incorporation assay. The Y-axis represents the cpm values. Doses are on the X-axis; BNZ132-1, 3 and 0.3 μM. Antibodies against IL-2 or IL-15 (1 and 10 μg ml-1 of each, R & D Systems). […]

Another assay concerns the target mouse IL-3 (Mus musculus, UniProt P01586). The assay is described as follows: PT-18β proliferation assay (3H-thymidine), non-γc cytokine IL-3. The following applies: 1 nM mouse IL-3, 15 μM BNZ132-1. Format: cell-based.

“Also recorded” adds a separate entry of the source. No end group written: not given here.

As to IKEFLQRFIHIVQSIINTS [BNZ132-1], in the assay with human IL-21, the “inhibition of IL-21-mediated protection from apoptotic death after IL-3 withdrawal” value is listed as “did not counteract the effect of IL-21; also recorded: not inhibited; also recorded: no inhibition of IL-21”. The “inhibition of spontaneous ex vivo proliferation of HAM/TSP T cells” value in the assay on HAM/TSP T cells is “as effective inhibition as combined anti-IL-2 and anti-IL-15 mABs; also recorded: Efficient inhibition”. In addition, the “inhibition of IL-3-induced proliferation of PT-18β cells” value against mouse IL-3 is “did not inhibit; also recorded: no inhibition; also recorded: no inhibition of non-γc cytokines”.

The values above are taken from patent publication US10854312B2, “Selective peptide antagonists” (BIONIZ, LLC, priority 2013, dated 2020).
